From patent US20150080462A1, “COMPOSITIONS AND METHODS FOR THE TREATMENT OR PREVENTION OF DISORDERS RELATING TO OXIDATIVE STRESS” (THE JOHNS HOPKINS UNIVERSITY, priority 2005, published 2015)

Key:
HO1 WT mice = assay: 72 h survival after MCAO, EC post-treatment; assay type: in vivo, mouse; settings: EC 30 mg/kg after 2 h or 4.5 h of reperfusion, 10 survived with vehicle
[1] = tested on: MCAO induced brain injury; assay: Corrected infarct volume (TTC) after MCAO, EC treatment; assay type: in vivo, mouse
Method: After 24 or 72 h of reperfusion, mice were anesthetized, and their brains dissected out and cut into 2-mm coronal sections. Brain slices were stained with 2,3,5-triphenyltetrazolium chloride (TTC, Sigma Co, St. […] Cerebral cortex and striatum volumes in ipsilateral necrotic lesion and contralateral normal side of the brain were measured multiplying the sum of the areas by the distance between sections. Infarct volume was indirectly calculated by subtracting the volume of intact tissue in the ipsilateral hemisphere from that of the contralateral hemisphere and expressed as the percentage of infarct area to the total hemispheric area for each slice. Epicatechin (EC) was given orally (per kilogram of body weight) through gavage and precautions were taken not only to minimize the stress to animals but also careful administration of the drug solution. For pre-treatment studies, a single dose of EC was given 90 minutes before middle cerebral artery occlusion (MCAO). […] MCAO procedure was slightly modified from the methods previously published by Shah et al. (Shah, et al. in press, 2006). […] To measure relative cerebral blood flow (CBF), mice were placed in a porcine posture on a temperature controlled heat blanket (37° C.). Under an operating microscope, a 0.5-mm diameter microfiber was glued to the skull (over the area of parietal cortex) with cyanoacrylate glue (Super Glue Gel, Ross Products, Inc.) approximately 6 mm lateral and 1 mm posterior of bregma and connected to a laser-Doppler flowmeter (DRT4, Moor Instruments Ltd, Devon, England). Mice were allowed to return to supine position and a neck midline-incision was made to expose the right common carotid artery (CCA), external carotid artery (ECA), and internal carotid arteries (ICA) after dissecting in through out thyroid glands. All the arteries were separated from the vagus nerve. A specially devised method for making 7-0 Ethilon nylon filament (Ethicon, Inc., Somarville, N.J.) with 5 mm of the tip coated with silicone (Cutter Sil Light and Universal Hardener, Heraeus Kulzer, GmbH, Hanau, Germany) was employed and the filament was introduced into the ICA through the ECA stump to block the blood circulation to MCA or circle of Willis. The filament was carefully advanced up to 11 mm from the carotid artery bifurcation or until resistance was felt. […] CFB was monitored for up to 5 minutes and mice not attaining the required drop were terminated from the study. Cortical perfusion values were expressed as a percentage relative to baseline. Animals were shifted to a humidity/temperature-controlled chamber at 32° C. to maintain the body temperature during the 90 minutes of MCA occlusion, at 37° C. For reperfusion mice were briefly anesthetizing and filament was withdrawn. After suturing the neck, midline wound mice were again returned to a humidity/temperature-controlled chamber for 2 h to maintain the body temperature at 37° C. and then later shifted to their respective cages.

[2] = previous toxicological studies (Galati et al 2006); cited from earlier work
[3] = tested on: MCAO induced brain injury; assay: Neurological deficit score after MCAO, EC treatment; assay type: in vivo, mouse; settings: for NDS: HO1WT mice
Excerpt: Motor deficits were graded by sensorimotor performance or neurological score by the method of Longa et al. (Stroke. 20:84-91.1989). […] (1) no deficit, (2) forelimb weakness, (3) inability to bear weight on the affected side, (4) no spontaneous motor activity. Epicatechin (EC) was given orally (per kilogram of body weight) through gavage and precautions were taken not only to minimize the stress to animals but also careful administration of the drug solution. For pre-treatment studies, a single dose of EC was given 90 minutes before middle cerebral artery occlusion (MCAO). […] MCAO procedure was slightly modified from the methods previously published by Shah et al. (Shah, et al. in press, 2006). […] To measure relative cerebral blood flow (CBF), mice were placed in a porcine posture on a temperature controlled heat blanket (37° C.). Under an operating microscope, a 0.5-mm diameter microfiber was glued to the skull (over the area of parietal cortex) with cyanoacrylate glue (Super Glue Gel, Ross Products, Inc.) approximately 6 mm lateral and 1 mm posterior of bregma and connected to a laser-Doppler flowmeter (DRT4, Moor Instruments Ltd, Devon, England). Mice were allowed to return to supine position and a neck midline-incision was made to expose the right common carotid artery (CCA), external carotid artery (ECA), and internal carotid arteries (ICA) after dissecting in through out thyroid glands. All the arteries were separated from the vagus nerve. A specially devised method for making 7-0 Ethilon nylon filament (Ethicon, Inc., Somarville, N.J.) with 5 mm of the tip coated with silicone (Cutter Sil Light and Universal Hardener, Heraeus Kulzer, GmbH, Hanau, Germany) was employed and the filament was introduced into the ICA through the ECA stump to block the blood circulation to MCA or circle of Willis. The filament was carefully advanced up to 11 mm from the carotid artery bifurcation or until resistance was felt. […] CFB was monitored for up to 5 minutes and mice not attaining the required drop were terminated from the study. Cortical perfusion values were expressed as a percentage relative to baseline. Animals were shifted to a humidity/temperature-controlled chamber at 32° C. to maintain the body temperature during the 90 minutes of MCA occlusion, at 37° C. For reperfusion mice were briefly anesthetizing and filament was withdrawn. After suturing the neck, midline wound mice were again returned to a humidity/temperature-controlled chamber for 2 h to maintain the body temperature at 37° C. and then later shifted to their respective cages.

[4] = Physiological parameters (pH, PaCO2, PaO2) of mice treated with vehicle and EC; assay type: in vivo, mouse; settings: different drug concentrations and vehicle
Method: In a separate cohort of mice (5 WT; 5 Nrf2^−/−) that underwent an identical stroke protocol, including CBF monitoring, blood samples were collected through a PE-10 femoral artery catheter (Intramedic; BD Diagnostic Systems, Sparks, Md.) 30 minutes before MCAO, 1 hour after initiation of MCAO, and 1 hour after reperfusion. The blood was evaluated for pH, PaO2, and PaCO2 via blood gas analysis (Rapidlab 248; Chiron Diagnostic Corporation, Norwood, Mass.). In some experiments, blood was drawn intermittently at different intervals of time; 30 minutes before MCAO, 1 h after the initiation of MCAO, and 1 h after reperfusion.

For `Oc1cc(O)c2c(c1)O[C@H](c1ccc(O)c(O)c1)[C@H](O)C2` [EC, (−)-Epicatechin], the “mice surviving 72 h (of 12 per group)” value (HO1 WT mice) was 12 mice, the corrected infarct volume ([1]; HO1 WT mice, EC 2.5 mg/kg oral 90 min before MCAO, 24 h reperfusion, not significant) was 33.8±3.3% and the corrected infarct volume ([1]; HO1 WT mice, EC 5 mg/kg oral 90 min before MCAO, 24 h reperfusion) was 28.8±2.9%. The corrected infarct volume ([1]; HO1 WT mice, EC 15 mg/kg oral 90 min before MCAO, 24 h reperfusion) was 24.9±3.8%, the infarct volume ([1]; HO1 WT mice, EC 30 mg/kg after 2 h of reperfusion, 72 h, vehicle 46.6±5.3, in %) was 33.5±3.2 and the corrected infarct volume ([1]; HO1 WT mice, EC 30 mg/kg oral 90 min before MCAO (90 min), 24 h reperfusion, vehicle 34.2±3.4%) was 20.1±2.7%. It also gave an infarction volume ([1]; HO1WT mice, EC 30 mg/kg post-treatment (3.5 h after MCAO), 72 h survival, vehicle 46.6±5.3%) of 33.5±3.2%, an infarct volume ([1]; HO1−/− mice, EC 30 mg/kg 90 min before MCAO, 24 h reperfusion, vehicle 37.1±3.9%, not significant) of 33.8±3.2% and an infarct volume ([1]; Nrf2 WT mice, EC 30 mg/kg 90 min before MCAO, 24 h reperfusion, vehicle 31.3±1.9%) of 24.1±1.8%. For the same molecule, the corrected infarct volume ([1]; Nrf2−/− mice, EC 30 mg/kg 90 min before MCAO, 24 h reperfusion, vehicle 44.8±4.6, not significant, in %) was 43.0±2.4, the safe dose [2] was “up to 150 mg” and the neurological deficit score ([3]; HO1 WT mice, EC 2.5 mg/kg pre-treatment, no difference vs vehicle) was 3.3±0.29. For the same molecule, the neurological deficit score ([3]; HO1 WT mice, EC 5 mg/kg pre-treatment) was 3±0.35, the neurological deficit score ([3]; HO1 WT mice, EC 15 mg/kg pre-treatment) was 2.7±0.39 and the NDS ([3]; EC 30 mg/kg 6 h post-treatment, vehicle 2.3±0.16, not significant) was 1.8±0.1. The neurological deficit score ([3]; HO1 WT mice, EC 30 mg/kg at 3.5 h, scored at 24 h of reperfusion, vehicle 3.5±0.26) was 2.8±0.3, the neurological deficit score ([3]; HO1 WT mice, EC 30 mg/kg at 6 h, scored at 24 h of reperfusion, vehicle 3.5±0.26) was 1.8±0.1 and the NDS ([3]; EC 30 mg/kg post-treatment (3.5 h after MCAO), vehicle 2.3±0.1) was 1.8±0.1. For the same molecule, the neurological deficit score ([3]; HO1 WT mice, EC 30 mg/kg pre-treatment) was 2.5±0.25, the neurological deficit score ([3]; Nrf2 WT mice, EC 30 mg/kg pre-treatment, 24 h, vehicle 3.1±0.26) was 2.3±0.1 and the neurological deficit score ([3]; Nrf2−/− mice, EC 30 mg/kg pre-treatment, 24 h, vehicle 3.5±0.1, not significant) was 3.4±0.17. The “physiological parameters (pH, PaCo2, Pao2) vs vehicle” value [4] was “no differences”.
